Results on one molecule are retold here after paper PMC8894198, “Biosynthetic Microcin J25 Exerts Strong Antibacterial, Anti-Inflammatory Activities, Low Cytotoxicity Without Increasing Drug-Resistance to Bacteria Target” (Frontiers in Immunology, 2022).

The subject of one test is RAW 264.7 cells. Description: LPS-induced inflammation in macrophages. Type of test: cell-based, mouse. As to the method: The mouse macrophage cell line RAW 264.7 was obtained in our lab and stored in liquid nitrogen. Cells were cultured in DMEM supplemented with 1% antibiotics (100 U/mL penicillin and 100 µg/mL streptomycin) with 20% FBS at 37°C and 5% CO2. Cells were transferred and inoculated in 12-well plates (1 × 10^4 cells/well) and cultured for 24 h.
RAW 264.7 cells (approximately 2 × 10^4 cells/well) were cultured with 1 µg/mL E. coli LPS for 3 h at 37°C in the absence (control) or presence of 1 μg/mL MccJ25 at 5% CO2. The cells and cell culture supernatants were then collected. Culture supernatant mixed with Griess reagent (1:1) and incubated for 15 min at room temperature. A microplate reader was used to measure […] (NO) at 540 nm. The changes in induced NO levels were clarified based on the comparison between the values of the treated and control groups. Each experiment was repeated three times.
The concentrations of tumor necrosis factor-α (TNF-α), interleukin-6 (IL-6), IL-4, interferon (IFN)-γ, and nitric oxide (NO) in serum were measured. In addition, TNF-α and NO levels were also measured in the supernatant of RAW264.7 cells. ELISA was performed using a commercial ELISA kit (eBioscience, San Diego, USA). LPS levels in plasma were analyzed using the QCL-1000 kit (Xiamen, China) based on the manufacturer’s standards. On the day of sacrifice, eyes were extracted with ethylenediaminetetraacetic acid (EDTA), and blood was collected into clean test tubes. Peripheral hemograms and white blood cells (WBCs) were analyzed using a Coulter LH755 hematology analyzer. The levels of serum D-lactate were measured using ELISA kit (Jiancheng, Nanjing, China) according to the manufacturer’s protocols.
The extent and mRNA expression levels of TNF-α, IL-6, IL-10, IL-1β, IFN-γ, and TLR4, and NF-κB in each body part of the jejunum, ileum, colon, and spleen and in RAW264.7 cells were clarified by RT–PCR as previously described ([31]). Primers for TNF-α, IL-6, IL-10, IL-1β, IFN-γ, TLR4, and NF-κB are described in Table S1 . […] Combined with gel electrophoresis and a NanoDrop 2000 spectrophotometer (Thermo Fisher Scientific, Wilmington, DE), the quality and quantity of total RNA were determined. […]
Frozen tissue samples and fresh cells were homogenized in RIPA lysis buffer containing protease inhibitors (Applygen, Beijing, China). Protein levels were determined using a BCA protein assay kit (Thermo Fisher Scientific, Rockford, IL). […] Chemofluorescence was detected using the ImageQuant LAS 4000 mini system (GE Healthcare Biosciences AB, Inc., Sweden) with Western Blot Luminance Reagent (Applygen, Beijing, China), and the membranes were cleaned with an ImageQuant TL (GE Healthcare Life Science) gel imaging system for quantification.

A further test has as its system plasmid DNA (pGEM-bGAL). The note with it: 400 ng plasmid DNA, 1 h room temperature, 1% agarose gel. The protocol: Based on the previously worked out method ([27]), briefly, gel retardation experiments were carried out, in which 400 ng of plasmid DNA (pGEM-bGAL; Promega) was increasingly bound to […] of binding buffer in MccJ25 binding and incubated for 1 h at room temperature. Then, […] of local loading buffer in each sample was […], and a 12 μL aliquot was bound to a 1% agarose gel. Finally, 0.5× Tris-borate-EDTA buffer was used for electrophoresis.

The next test deals with E. coli K88. The experiment in a line: Sytox Green influx (membrane permeabilization). The class given is cell-based. The note with it: 0.5 × to 5 × MIC, dose dependent; ex 485 nm, em 520 nm. As to the method:
E. coli K88 cells were incubated at 37°C until growth reached the mid-log phase stage, and the cells were washed and resuspended in 10 mM NaH2PO4, pH 7.2 (2 × 10^7/mL). Cells were then incubated with […] Sytox Green for 15 min in a light-free environment.

Another test deals with E. coli LKFZ GZM4. The experiment in a line: MIC/MBC, clinical isolate. Type of test: cell-based. The note with it: source pig stool. As to the method:
(§1) The minimum inhibitory concentration (MIC) refers to the lowest concentration that can produce a significant hindrance to bacterial growth in a drug sensitivity test by adopting a broth dilution, with certain refinements and modifications based on the previous description ([25], [26]). In short, MccJ25 was dissolved in sterilized distilled water (SDW), serial 2-fold dilutions were prepared in Mueller-Hinton broth (MHB) through a 96-well microtiter plate, and the final concentration of MccJ25 was maintained in the range of 0.003125 to 256 μg/mL. Then, 2 μL of standard and clinically relevant overnight broth cultures of bacteria were inoculated into each well at a concentration of 5 × 10^6 CFU/mL. Microtiter plates were incubated at 37°C for one full day. Two groups were set up: positive (medium with inoculum) and negative (medium only) controls. The minimum bactericidal concentration (MBC) was measured in LB medium and refers to the first drug dilution value at which the initial bacterial concentration was reduced by 99.99%. The final analysis was determined by the results of three replicated and independent experiments. To further assess and clarify the antimicrobial activity of MccJ25, the protective ability against E. coli adhesion, live/dead assay, and killing curve were performed, the detailed methods were provided in Supplementary Materials .

For another test, the system named is E. coli LKFZ GL2. Description: MIC/MBC, clinical isolate. The class given is cell-based. The note with it: source pig stool. As to the method: as §1
Where [1] appears, read: LB medium, 99.99% reduction, three independent experiments.
The mark [2] stands for this setting: broth dilution in MHB, 37°C, three independent experiments.

Converted amounts (≈) assume the structure as drawn. Where a SMILES comes first, the peptide text is derived from it. Bridges are numbered along the chain shown (N, C = ends).

`CC[C@H](C)[C@H](NC(=O)CNC(=O)[C@@H](NC(=O)[C@H](Cc1ccccc1)NC(=O)[C@H](Cc1ccc(O)cc1)NC(=O)[C@@H]1CCC(=O)NCC(=O)NCC(=O)N[C@@H](C)C(=O)NCC(=O)N[C@@H](Cc2c[nH]cn2)C(=O)N[C@@H](C(C)C)C(=O)N2CCC[C@H]2C(=O)N1)C(C)C)C(=O)NCC(=O)N[C@H](C(=O)N1CCC[C@H]1C(=O)N[C@H](C(=O)N[C@@H](CO)C(=O)N[C@@H](Cc1ccccc1)C(=O)N[C@@H](Cc1ccc(O)cc1)C(=O)NCC(=O)O)[C@@H](C)CC)[C@@H](C)O` [MccJ25, microcin J25] (GGAGHVPEYFVGIGTPISFYG-OH; lactam N-8 (inferred); C-terminus assumed): the “LPS-stimulated expression of TNF-α and TLR-4 (RT-PCR)” value in the test on RAW 264.7 cells (LPS 1 µg/mL, MccJ25 1 µg/mL) is “this stimulatory effect was inhibited”. Besides, the “LPS-induced TNF-α and NO secretion” value with RAW 264.7 cells (LPS 1 µg/mL, MccJ25 1 µg/mL, 3 h) is reported as “this increase in secretion was alleviated”. For the same molecule, the “MyD88, TLR4, TNF-α and IL-6 protein expression” value with RAW 264.7 cells (western blot, after LPS challenge) is given as “sharply decreased”. The “p-NF-κB and MyD88 protein expression” value in the test on RAW 264.7 cells (western blot, after LPS challenge for 3 h) is given as “significantly decreased”. Besides, the “weight ratio (MccJ25:DNA) at which DNA migration was slightly inhibited” value with plasmid DNA (pGEM-bGAL) is “above 2.0”. Besides, in the test with E. coli K88, the “Sytox Green fluorescence / membrane integrity” value is “membrane integrity was significantly disrupted”. The MBC against E. coli LKFZ GZM4 (setting [1]) was 1.000 µg/mL (≈ 0.475 µM); in the test on E. coli LKFZ GL2 (setting [1]), 0.500 µg/mL (≈ 0.237 µM). The MIC in the test on E. coli LKFZ GZM4 (setting [2]) and against E. coli LKFZ GL2 (setting [2]) was 0.250 µg/mL (≈ 0.119 µM) throughout. Further, the values for the MIC/MBC in the test with E. coli LKFZ GZM4 (ratio) and in the test with E. coli LKFZ GL2 (ratio) were 0.250 and 0.500, respectively.

A word on the MBC: it is the lowest tested concentration that kills the bacteria rather than only halting them. What is called MIC is the lowest concentration found to suppress growth.
